{
  "source": "patent US20100041621A1",
  "about": "“METHODS AND COMPOSITIONS FOR IMPROVING COGNITIVE PERFORMANCE” (priority 2008, published 2010)",
  "key": {"[1]": {"system": "axial brain slice through the frontal and occipital cortices", "conditions": "elderly subjects (69.4±5.6 years), 6 weeks of treatment, 1.5 Tesla; cited from earlier work"}, "[2]": {"system": "parieto-occipital cortex (POC)", "experiment": "31P MRSI (3D-CSI, 4 Tesla) of phosphorus metabolites in the parieto-occipital cortex (comparison region) after six weeks of oral citicoline", "assay_type": "in vivo, human", "from_the_text": "(§1) ^31P data were collected using a three-dimensional chemical shift imaging (3D-CSI) technique at 4 Tesla in healthy middle-aged individuals. The use of 3D-CSI at high field has several advantages over previous methods: 1) increased spectral dispersion, which allows for increased precision of metabolite quantification; 2) post-processing grid shifting that allows for 3D placement of voxels of interest; and 3) the ability to co-register voxel placement between baseline and post-treatment follow-up. High-energy metabolite peaks quantified in the present study include phosphocreatine (PCr), β-nucleoside triphosphate (NTP, ATP in brain), and inorganic phosphate (Pi). Phospholipid membrane metabolite peaks quantified include anabolites, phosphomonoesters (PME), including phosphoethanolamine (PE) and phosphocholine (PC), and catabolites, phosphodiesters (PDE), including glycerophosphoethanolamine (GPE) and glycerolphosphocholine (GPC). A region of interest approach was used to examine phosphorus metabolite levels in the anterior cingulate cortex (ACC), given the notable age-related decline in frontal brain metabolism and impairment of frontally-mediated cognitive functions. A comparison region placed in the parieto-occipital cortex (POC) was also evaluated. It was hypothesized that oral supplementation with citicoline would improve frontal bioenergetic metabolism via elevations in availability of high-energy phosphates, as well as alteration of membrane phospholipid turnover by providing additional membrane precursors.\n(§2) Subjects included sixteen neurologically and psychiatrically healthy adults (mean age=47.3±5.4 years; 8 females, 8 males). Trained research technicians administered a structured clinical psychiatric interview using the Structured Clinical Interview for DSM-IV (SCID). All subjects were free of Axis I diagnoses, neurological illness, severe medical problems, and psychoactive substance use.\n(§3) Subjects were randomly assigned to receive a six-week supply of either 500 mg (4 males and 4 females) or 2000 mg (4 males and 4 females) of Cognizin® Citicoline (Kyowa Hakko Kogyo Co., Ltd., JAPAN). Subjects were instructed to take one capsule every day (500 mg group) or four capsules every day in a single dose (2000 mg group) for six weeks. […] Magnetic resonance spectroscopy (MRS) was completed on all subjects in two imaging sessions: one prior to beginning treatment (baseline) and one after completing six weeks of treatment.\n(§4) All proton imaging was performed using the proton channel of the dual tuned open face proton-phosphorus TEM whole-head coil from Bioengineering Inc. (Minneapolis, Minn.) operating at a nominal frequency of 170.3 MHz. A 2D gradient-recalled echo imaging sequence (12 seconds duration) was used to acquire a single image in all three spatial dimensions (sagittal, coronal, axial) to quickly determine the patient's position and angle. High-contrast, T1-weighted sagittal, coronal images as well as T1 and T2-weighted transverse images of the entire brain were acquired using a three-dimensional, magnetization-prepared FLASH imaging sequence (3D-MP FLASH), allowing for clear segmentation between grey-matter, white-matter, and CSF, as well as clearly delineating between the different anatomical regions of interest. This approach was used to optimize […] voxel positioning, and volumetric correction in the regions of interest.\n(§5) Phosphorus MRSI was performed using the phosphorus channel of the dual tuned proton-phosphorus TEM whole-head coil from Bioengineering Inc. (Minneapolis, Minn.) operating at 68.9 MHz. Phosphorus MRSI data were recorded using a three-dimensional chemical shift imaging (3D-CSI) sequence (Garraux, Neuroimage 10:149-162, 1999). […]"}, "[3]": {"system": "anterior cingulate cortex (ACC)", "experiment": "31P MRSI (3D-CSI, 4 Tesla) of phosphorus metabolites in the anterior cingulate cortex after six weeks of oral citicoline", "assay_type": "in vivo, human", "conditions": "6 weeks, doses pooled, mean ± SD", "from_the_text": "as §1, §2, §3, §4, §5"}, "[4]": {"conditions": "POC, six weeks, at either dose (500 or 2000 mg)"}},
  "data": [
    {"smiles": "C[N+](C)(C)CCOP(=O)(O)OP(=O)([O-])OC[C@H]1O[C@@H](n2ccc(N)nc2=O)[C@H](O)[C@@H]1O", "note": "[citicoline, CDP-choline]", "values": [
      {"measurement": "change in phosphodiesters (PDE, phospholipid membrane catabolites)", "setting": "[1]", "result": "significant increase"},
      {"measurement": "change in phospholipid membrane metabolites", "setting": "[2]; POC region of interest, baseline vs six weeks", "result": "No significant changes"},
      {"measurement": "PC, metabolite ratio relative to total 31P signal", "setting": "[2]; POC, 6 weeks, doses pooled, mean ± SD, baseline .023 ± .009, ns", "result": ".026 ± .012"},
      {"measurement": "GPE, metabolite ratio relative to total 31P signal", "setting": "[2]; POC, 6 weeks, doses pooled, mean ± SD, baseline .034 ± .011, ns", "result": ".032 ± .014"},
      {"measurement": "GPC, metabolite ratio relative to total 31P signal", "setting": "[2]; POC, 6 weeks, doses pooled, mean ± SD, baseline .047 ± .017, ns", "result": ".047 ± .010"},
      {"measurement": "β-NTP, metabolite ratio relative to total 31P signal", "setting": "[2]; POC, 6 weeks, doses pooled, mean ± SD, baseline .063 ± .009, ns", "result": ".066 ± .010"},
      {"measurement": "PE, metabolite ratio relative to total 31P signal", "setting": "[2]; POC, 6 weeks, doses pooled, mean ± SD, baseline .065 ± .009, ns", "result": ".058 ± .010"},
      {"measurement": "Pi, metabolite ratio relative to total 31P signal", "setting": "[2]; POC, 6 weeks, doses pooled, mean ± SD, baseline .072 ± .010, ns", "result": ".075 ± .013"},
      {"measurement": "PME, metabolite ratio relative to total 31P signal", "setting": "[2]; POC, 6 weeks, doses pooled, mean ± SD, baseline .088 ± .015, ns", "result": ".084 ± .011"},
      {"measurement": "change in PCr/Pi ratio", "setting": "[2]; [4]", "result": "No changes"},
      {"measurement": "change in Pi", "setting": "[2]; [4]", "result": "No changes"},
      {"measurement": "PC, metabolite ratio relative to total 31P signal", "setting": "[3]; baseline .026 ± .010, p .02", "result": ".019 ± .008"},
      {"measurement": "GPE, metabolite ratio relative to total 31P signal", "setting": "[3]; baseline .039 ± .010, p .01", "result": ".030 ± .009"},
      {"measurement": "PE, metabolite ratio relative to total 31P signal", "setting": "[3]; baseline .043 ± .015, p .04", "result": ".054 ± .008"},
      {"measurement": "GPC, metabolite ratio relative to total 31P signal", "setting": "[3]; baseline .051 ± .015, ns", "result": ".047 ± .016"},
      {"measurement": "β-NTP, metabolite ratio relative to total 31P signal", "setting": "[3]; baseline .066 ± .012, p .05", "result": ".075 ± .014"},
      {"measurement": "PME, metabolite ratio relative to total 31P signal", "setting": "[3]; baseline .069 ± .016, ns", "result": ".073 ± .012"},
      {"measurement": "Pi, metabolite ratio relative to total 31P signal", "setting": "[3]; baseline .073 ± .012, p .15", "result": ".065 ± .022"}
    ]}
  ]
}
